Assay [1] concerns carrageenin-induced edema of the hind paw. As to the kind of experiment: Carrageenin-induced paw edema in rats. Conditions: for Swelling volume: rat hind paw; for decrease in the edema size: after 1 h, versus control. On the technique in general: In the carrageenan paw model, swelling and tenderness develop within hours.
Protocol: Sprague dawley rats (150-200 g) were used. Edema was induced by a single sub-plantar injection of carrageenin (1 mg/paw) into the left hind paw of the rat under light ether anesthesia. The total volume injected was always 0.1 ml. […] The results were expressed either as the increase in paw volume (ml) calculated by subtracting the basal volume or by calculating the area under the time-course curve (AUC; ml h) for each group.
In assay [2] the target is T1, ovine COX-1 (Ovis aries, UniProt P05979).
T1 construct: purchased Cayman Chemical 560101
T1 sequence (P05979 25-600): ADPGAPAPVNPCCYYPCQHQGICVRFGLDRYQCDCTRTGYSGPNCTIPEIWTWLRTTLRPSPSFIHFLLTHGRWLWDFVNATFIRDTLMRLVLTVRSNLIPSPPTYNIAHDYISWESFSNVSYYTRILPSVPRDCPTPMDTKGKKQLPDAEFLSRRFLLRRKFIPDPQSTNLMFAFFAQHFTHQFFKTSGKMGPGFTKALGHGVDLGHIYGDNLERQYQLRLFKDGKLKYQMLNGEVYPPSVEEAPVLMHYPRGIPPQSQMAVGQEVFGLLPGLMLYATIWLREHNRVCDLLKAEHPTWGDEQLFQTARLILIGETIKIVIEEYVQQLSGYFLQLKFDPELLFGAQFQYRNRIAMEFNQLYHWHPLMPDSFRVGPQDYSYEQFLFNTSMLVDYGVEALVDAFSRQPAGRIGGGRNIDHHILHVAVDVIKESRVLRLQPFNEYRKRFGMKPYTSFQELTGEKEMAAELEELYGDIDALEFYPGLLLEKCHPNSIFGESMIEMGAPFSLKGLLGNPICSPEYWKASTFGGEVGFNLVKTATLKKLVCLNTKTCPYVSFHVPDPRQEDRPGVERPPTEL
As to the kind of experiment: In vitro COX-1 inhibition, enzyme immuno assay (EIA) kit. It is filed as biochemical. As to conditions: ovine COX-1, EIA, duplicate determinations. On the procedure:
(§1) The exemplary conjugates shown in FIGS. 5 A-E, to which reference is now made, were tested for inhibition of COX-1 and COX-2 to in-vitro activity The ability of the test compounds listed in the Table 1 to inhibit ovine COX-1 and COX-2 (IC50 values, […]) was determined using an enzyme immuno assay (EIA) kit catalog number 560101, Cayman Chemical, Ann Arbor, Mich., USA) according to the manufacturers instructions.
(§2) Cyclooxygenase catalyzes the first step in the biosynthesis of arachidonic acid (AA) to PGH2. PGF2α, produced from PGH2 by reduction with stannous chloride, is measured by enzyme immunoassay (ACETM competitive EIA).
(§3) Stock solutions of test compounds were dissolved in a minimum volume of DMSO. Briefly, to a series of supplied reaction buffer solutions (960 μL, 0.1M Tris-HCl pH 8.0 containing 5 mM EDTA and 2 mM phenol) with either COX-1 or COX-2 (10 μL) enzyme in the presence of heme (10 μL) were added 10 μL of various concentrations of test drug solutions (0.01, 0.1, 1, 10, 50, and 100 μM in a final volume of 1 mL). These solutions were incubated for a period of 5 min at 37° C. after which 10 μL of AA (100 μM) solution were added and the COX reaction was stopped by the addition of 50 μL of 1M HCl after 2 min. PGF2α, produced from PGH2 by reduction with stannous chloride was measured by enzyme immunoassay.
(§4) This assay is based on the competition between PGs and a PG-acetylcholinesterase conjugate (PG tracer) for a limited amount of PG antiserum. The amount of PG tracer that is able to bind to the PG antiserum is inversely proportional to the concentration of PGs in the wells since the concentration of PG tracer is held constant while the concentration of PGs varies. The concentration of the test compound causing 50% inhibition (IC50, μM) was calculated from the concentration-inhibition response curve (duplicate determinations).

The target in assay [3] is T2, ovine COX-2 (Ovis aries, UniProt P79208).
T2 construct: purchased Cayman Chemical 560101
T2 sequence (P79208 17-603): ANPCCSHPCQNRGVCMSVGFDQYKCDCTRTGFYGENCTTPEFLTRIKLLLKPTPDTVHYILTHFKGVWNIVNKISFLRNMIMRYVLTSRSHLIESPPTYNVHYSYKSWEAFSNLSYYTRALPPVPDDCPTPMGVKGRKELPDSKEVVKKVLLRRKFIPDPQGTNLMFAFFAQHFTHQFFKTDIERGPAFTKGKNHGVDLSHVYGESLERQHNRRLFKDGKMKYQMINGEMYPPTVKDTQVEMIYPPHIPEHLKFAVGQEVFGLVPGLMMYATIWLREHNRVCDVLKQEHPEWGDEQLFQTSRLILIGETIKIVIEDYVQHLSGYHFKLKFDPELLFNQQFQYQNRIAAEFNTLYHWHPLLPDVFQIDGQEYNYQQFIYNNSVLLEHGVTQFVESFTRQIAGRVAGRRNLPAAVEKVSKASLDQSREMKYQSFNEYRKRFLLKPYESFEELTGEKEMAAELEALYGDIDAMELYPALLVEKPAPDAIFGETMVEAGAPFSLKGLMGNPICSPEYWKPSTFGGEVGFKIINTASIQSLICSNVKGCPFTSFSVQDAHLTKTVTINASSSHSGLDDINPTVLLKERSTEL
As to the kind of experiment: In vitro COX-2 inhibition, enzyme immuno assay (EIA) kit. It is filed as biochemical. As to conditions: for IC50: ovine COX-2, EIA, duplicate determinations; for Ration (COX ½): ratio of COX-1 IC50 to COX-2 IC50. The procedure:
as §1, §2, §3, §4

Assay [4] relates to inflammatory bowel disease IBD (ulcerative colitis). Kind of assay: Tri-nitrobenzene sulfunic acid induced ulcerative colitis in rats, MPO activity in colon. Type of assay: in vivo, Sprague dawley rats. Conditions: 25 mg/kg rectally, inflamed area of the colon, FIG. 7. The procedure: The exemplary RNX006 compound shown in FIG. 5 F, to which reference is now made, was tested for the effect on the inflammatory bowel disease IBD (ulcerative colitis) in rats as follows. Male Sprague dawley rats were used in this study. Briefly, ulcerative colitis was induced by tri-nitrobenzene sulfunic acid as described in the literature. Rats were divided into 4 groups, (−) sham (healthy, (+) control ulcerative colitis (UC, not treated), UC treated with RNX006 (25 mg/kg), and UC treated with 5-amino salicylic acid (5-ASA 25 mg/kg). RNX006 and 5-ASA were administered rectally during all the period of the experiment. At the end of the experiment animals were sacrificed and the colon was isolated to test the severity of the inflammation. The severity of the inflammation was tested by measurement of the myeloperoxidase activity (MPO activity) in the inflamed area of the colon.

`CCCCC/C=C/C/C=C/CCCCCCCC(=O)N1CC(O)CC1C(=O)O` (stereo not drawn) [RNX002]: the Swelling volume in assay [1] (1 hr after carrageenin) stood at 0.9 ± 0.06 mL; in assay [1] (2 hr after carrageenin) it was 1.6 ± 0.09 mL; in assay [1] (3 hr after carrageenin), 2.3 ± 0.11 mL; in assay [1] (4 hr after carrageenin), 2.1 ± 0.13 mL. Moreover, in assay [1], the “decrease in the edema size” value is 43.4%. Besides, the IC50 in assay [2] was 52.7 µM; in assay [3], 510 nM. Moreover, in assay [3], the “Ration (COX ½)” value turned out to be 103.3.

In assay [2], `CC/C=C\C/C=C/C/C=C/C/C=C/C/C=C/C/C=C/CCC(=O)N1CC(O)CC1C(=O)O` (stereo not drawn) [RNX005] gave an IC50 of 42.8 µM. Further, in assay [3], the IC50 stood at 81 nM and the “Ration (COX ½)” value came out at 528.68.

For `CCCCCCCC/C=C/CCCCCCCC(=O)N1CC(O)CC1C(=O)O` (stereo not drawn) [RNX001], the Swelling volume is 1.1 ± 0.09 mL in assay [1] (1 hr after carrageenin), 1.3 ± 0.13 mL in assay [1] (2 hr after carrageenin), 1.9 ± 0.1 mL in assay [1] (3 hr after carrageenin) and 1.8 ± 0.13 mL in assay [1] (4 hr after carrageenin). Further, the “decrease in the edema size” value in assay [1] is 31%. In addition, the IC50 in assay [2] amounted to 72.5 µM; in assay [3], 1300 nM. For the same molecule, the “Ration (COX ½)” value in assay [3] is 55.7.

As to `CCCCC/C=C/C/C=C/C/C=C/CCCCC(=O)NCCS(=O)(=O)O` [RNX006], in assay [4], the “MPO activity relatively to IBD rats treated with 5-ASA” value was “even a lower MPO activity” and the “MPO activity relatively to the (+) control of non-treated IBD rats” value is recorded as “significantly lower MPO activity”.

Take `CC/C=C\C/C=C/C/C=C/C/C=C/C/C=C/CCCC(=O)N1CC(O)CC1C(=O)O` (stereo not drawn) [RNX004]: the IC50 in assay [2] was 39.5 µM. In assay [3], it took 85 nM to reach half-maximal inhibition (IC50) and the “Ration (COX ½)” value was found to be 464.11.

As a reminder, the IC50 is the point on the concentration scale where inhibition reaches its midpoint. Read a low IC50 as higher potency.

The record behind these values is patent US20140121260A1, “NOVEL CONJUGATES OF POLYUNSATURATED FATTY ACIDS WITH AMINES AND THERAPEUTIC USES THEREOF” (MedWell Laboratories Ltd., priority 2006, published 2014).
